Results as given in patent publication US20120100097A1, “CELLULOSE SUPPORT CONTAINING D-MANNOSE DERIVATIVES” (priority 2009, published 2012).

Each compound was assayed on Escherichia coli with type 1 pili (strain 382). Conditions: minimum inhibitive concentration (mg/ml) divided by that of D-mannose, x100; lower = stronger; free mannose derivatives before copolymerization.
Type: cell-based
Description: The conducted bacteriological test is an agglutination yeast test. In fact the bacteria Escherichia coli with type 1 pili, have the capacity to agglutinate yeasts. The agglutination may be prevented by mannose derivatives. The strain 382 of Escherichia coli obtained from National Bacteriological Laboratory of Stockholm, which expresses in a stable manner type 1 pili, is used. The expression of the pili can be enhanced by growing bacteria by way of three subcultures in a nutrient broth (NB, oxiod). After culture the bacteria are centrifuged and added as suspension in the same amount of phosphate buffered saline (PBS pH 7.2). A concentration of bacteria equal to 2-3.10^9 bacteria/ml is obtained. Baker's yeasts are added as suspension into PBS at a final concentration of 5.10^8 cells/ml. The various mannose derivatives are diluted from the initial concentration of 20 mg/ml maximum in two stages in PBS. Into 50 μl of each diluted sugar 50 μl of Escherichia coli is added and incubated at room temperature for 15 min to allow interaction. Finally 50 μl of yeast is added into each tube. After another 15 min. incubation at room temperature and one night at 4° C., agglutination, in other words interaction between bacteria and yeast, is evaluated.

| Structure (SMILES) | Inhibitive activity in % [%] |
| --- | --- |
| O=C[C@@H](O)[C@@H](O)[C@H](O)[C@H](O)CO [D-Mannose] | 100 |
| CCS[C@H]1O[C@H](CO)[C@@H](O)[C@H](O)[C@@H]1O [Ethyl 1-thio-α-D-mannopyranoside, reference compound] | 18 |
| OCCOCCO[C@H]1OC(CO)[C@@H](O)[C@H](O)C1O (stereo partly drawn) [Compound 4, 2-[(2-hydroxy-)ethoxy-]-ethyl α-D-Mannopyranoside] | 24 |
| OCC1O[C@H](OCc2ccccc2)C(O)[C@@H](O)[C@@H]1O (stereo partly drawn) [Compound 10, Benzyl-α-D-Mannopyranoside] | 24 |
| CO[C@H]1O[C@H](CO)[C@@H](O)[C@H](O)[C@@H]1O [Methyl-α-D-Mannoside, reference compound] | 45 |
| O=[N+]([O-])c1ccc(O[C@H]2O[C@H](CO)[C@@H](O)[C@H](O[C@H]3O[C@H](CO)[C@@H](O)[C@H](O)[C@@H]3O)[C@@H]2O)cc1 [Compound 15, p-Nitrophenyl 3-O-α-D-Mannopyranosyl-α-DMannopyranoside] | 0.70 |
| COCCOCCO[C@H]1O[C@H](CO)[C@@H](O)[C@H](O)[C@@H]1O [Compound 7, 2-[(2-methoxy-)ethoxy-]-ethyl α-D-Mannopyranoside] | 24 |
| C=CCO[C@H]1OC(CO)[C@@H](O)C(O)C1O (stereo partly drawn) [Compound 8, Allyl-α-D-mannopyranoside] | 0.12 |
| Nc1ccc(O[C@H]2O[C@H](CO)[C@@H](O)[C@H](O)[C@@H]2O)cc1 [Compound 12, p-Aminophenyl-α-D-Mannopyranoside] | 0.93 |

What follows are compounds tested on Escherichia coli with type 1 pili (strain 382). Conditions: agglutination test of the terpolymer directly on Escherichia coli strains; relative to D mannose = 100.
Type: cell-based

| Structure (SMILES) | Inhibitative activity [%] |
| --- | --- |
| O=C[C@@H](O)[C@@H](O)[C@H](O)[C@H](O)CO [D-Mannose] | 100 |
